One molecule from patent US20260021046A1, “LIPID NANOPARTICLE AND PHARMACEUTICAL COMPOSITION” (NATIONAL UNIVERSITY CORPORATION HOKKAIDO UNIVERSITY, priority 2022, published 2026) can be followed below.

Data set [1] is described as follows: Average particle size, PDI, zeta potential (dynamic light scattering) and RNA encapsulation efficiency (RiboGreen) of lipid nanoparticles. In kind it is physicochemical. On the procedure: The average particle size, particle size distribution, and zeta potential of the lipid nanoparticles were measured using a Zetasizer Nano ZS (Malvern Instruments Ltd, UK) by dynamic light scattering and the form of lipid nanoparticle was measured using a transmission electron-microscope as described in NPL 12. The efficiency of mRNA encapsulation was estimated by RiboGreen fluorometry as described in NPL 13. Although the respective values vary depending on the type of pH-sensitive cationic lipid, the composition of the lipids constituting the lipid nanoparticles, the preparation conditions of the lipid nanoparticles, and the like, the average particle size of the lipid nanoparticles was in the range of 80 to 350 nm, the PDI was in the range of 0.05 to 0.4, the zeta potential was in the range of −16 to +5 mV, and the efficiency of mRNA encapsulation was 75 to 95%. • [NPL 12] Mahmoud A. Younis, et al., “A Multifunctional Lipid-Based Nanodevice for the Highly Specific Codelivery of Sorafenib and Midkine siRNA to Hepatic Cancer Cells”, Molecular Pharmaceutics, Vol. 16, pp. 4031-4044 • [NPL 13] Mahmoud M. Abd Elwakil, et al., “Engineered &-decalactone lipomers bypass the liver to selectively in vivo deliver mRNA to the lungs without targeting ligands”, Materials Horizons, Vol. 8, pp. 2251-2259
The average particle size, particle size distribution, and zeta potential of the lipid nanoparticles were measured in the same manner as in Example 1 to estimate the efficiency of SMO-siRNA encapsulation. The relationship between the flow rate ratio of the aqueous phase to the organic phase, the average particle size, particle size distribution, zeta potential, and SMO-siRNA encapsulation efficiency of the lipid nanoparticles prepared at the same flow rate ratio when CL15H6 was used as the pH-sensitive cationic lipid is shown in Table 3 below. In the subsequent experiments, lipid nanoparticles were prepared at a ratio of 4:1 (aqueous phase: organic phase), which provided the highest encapsulation efficiency, the smallest average particle size, and the smallest PDI.

A further data set deals with hepatic stellate cells. In words: In vivo mRNA delivery to hepatic stellate cells in TAA-induced liver fibrosis model mice. To be noted: 24 hours. The procedure:
Thioacetamide (TAA (TCI, Japan))-induced liver fibrosis models were generated in 4-week-old male BALB/c mise (Sankyo laboratories, Japan). Specifically, TAA dissolved in saline was injected intraperitoneally at an amount of 200 mg/kg of TAA per kg of body weight. This was repeated every 3 days for a total of 10 times. The livers of the liver fibrosis model mice were examined by histopathology and hydroxyproline quantitative assay (Cell Biolabs Inc, USA), and the activation of hepatic stellate cells (HSCs) was confirmed by quantitative real-time polymerase chain reaction (qRT-PCR).
The lipid nanoparticles prepared by using CL15A6 encapsulated the above-described EGFP mRNA or firefly luciferase (FLuc) mRNA (TriLink BioTechnologies, USA), and the lipid nanoparticles were administered intravenously to mice via the tail vein so that the amount of RNA per kg of body weight was 1 mg/kg. Twenty-four hours after the administration, hepatic stellate cells and hepatocytes were collected from the livers of the mice as described in NPL 15. For EGFP mRNA, FACS was used to evaluate delivery efficiency and transfection efficiency, and for FLuc mRNA, the luciferase assay was used to evaluate delivery efficiency as described in NPL 16. • [NPL 15] Ingmar Mederacke, et al., “High-yield and high-purity isolation of hepatic stellate cells from normal and fibrotic mouse livers”, Nature Protocols, Vol. 10, pp. 305-315 • [NPL 16] Ikramy A. Khalil, et al., “Synergism between a cell penetrating peptide and a pH-sensitive cationic lipid in efficient gene delivery based on double-coated nanoparticles”, Journal of Controlled Release, Vol. 275, pp. 107-116
First, the microchannel device (iLiNP device) was operated under different conditions to prepare lipid nanoparticles with different average particle sizes. Specifically, lipid nanoparticles with an average particle size of more than 150 nm (e.g., 180 nm), lipid nanoparticles with an average particle size of 100 to 150 nm (e.g., 130 nm), and lipid nanoparticles with an average particle size of less than 100 nm (e.g., 90 nm) were prepared. The prepared lipid nanoparticles were administered intravenously to mice with liver fibrosis, and the mRNA delivery efficiency and transfection efficiency with respect to hepatic stellate cells and hepatocytes were evaluated 24 hours later.
Next, lipid nanoparticles with different nitrogen/phosphate (N/P) ratios were prepared by mixing a lipid composition containing CL15A6 with mRNA at different ratios. Specifically, lipid nanoparticles with N/P ratios of 4, 8, 12, 16, and 20 were prepared. The prepared lipid nanoparticles were intravenously administered to mice with liver fibrosis, and the mRNA delivery efficiency and transfection efficiency with respect to hepatic stellate cells and hepatocytes were evaluated 24 hours later.
Next, lipid nanoparticles containing different types of helper phospholipids were prepared by changing the type of helper phospholipid in the lipid composition containing CL15A6. As the unsaturated phosphatidylethanolamine, 1,2-dioleoyl-sn-glycero-3-phosphoethanolamine (DOPE) was used. As the unsaturated phosphatidylcholine, 1,2-dioleoyl-sn-glycero-3-phosphocholine (DOPC) was used. As the saturated phospholipid, 1,2-distearoyl-sn-glycero-3-phosphocholine (DSPC) was used. The prepared lipid nanoparticles were intravenously administered to mice with liver fibrosis, and the mRNA delivery efficiency and transfection efficiency with respect to hepatic stellate cells and hepatocytes were evaluated 24 hours later.
Next, lipid nanoparticles containing helper phospholipid (DOPE) at different molar percentages were prepared by changing the molar ratio of the helper phospholipid (DOPE). The prepared lipid nanoparticles were intravenously administered to mice with liver fibrosis, and the mRNA delivery efficiency and transfection efficiency with respect to hepatic stellate cells and hepatocytes were evaluated 24 hours later. […]

The mark [2] stands for this setting: lipid nanoparticles CL15A6:DOPE:cholesterol:DMG-PEG2K 5:3:2:0.3.
[3] abbreviates: CL15A6 lipid nanoparticles iv, DMG-PEG2K 3 to 5 mol %.
Where [4] appears, read: CL15A6 lipid nanoparticles, 1 mg/kg RNA iv, when particle size was reduced (>150 nm, 100 to 150 nm, <100 nm).

`CCCCC/C=C\C/C=C\CCCCCCCCC(O)(CCCCCCCC/C=C\C/C=C\CCCCC)CCCCOC(=O)C1CCN(C)CC1` [CL15A6, (14z,17z)-5-hydroxy-5-((9z,12z)-octadeca-9,12-dien-1-yl)tricosa-14,17-dien-1-yl 1-methylpiperidine-4-carboxylate] gave a particle size in data set [1] (CL15A6 mRNA lipid nanoparticles, DMG-PEG2K 1.5 mol %) of 100 nm. Further, the Average particle size amounted to 80 nm in data set [1] (CL15A6 mRNA lipid nanoparticles, N/P ratio increased from 4 to 8) and 80 nm in data set [1] (setting [2]). In data set [1] (setting [2]), this molecule had a PDI below 0.1. The mRNA delivery efficiency entry in the data set with hepatic stellate cells (CL15A6 lipid nanoparticles iv, DMG-PEG2K 1.5 mol %) is “decreased”; with hepatic stellate cells (CL15A6 lipid nanoparticles iv, N/P ratio increased from 16 to 20), “decreased”. Besides, in the data set on hepatic stellate cells (setting [3]), the “efficiency of mRNA delivery to hepatic stellate cells” value is recorded as “high”. Besides, the “hepatic stellate cells transfected in vivo” value with hepatic stellate cells (setting [3]) is at least 80%. The “delivery of mRNA to hepatic stellate cells” value in the data set with hepatic stellate cells (CL15A6 lipid nanoparticles iv, DOPE 20 to 30 mol %) was “significantly improved”; in the data set with hepatic stellate cells (CL15A6 lipid nanoparticles iv, DOPE 40 mol %), “reduced”; in the data set on hepatic stellate cells (CL15A6 lipid nanoparticles iv, N/P ratio increased from 4 to 8), “significantly improved”. The “mRNA delivery to hepatic stellate cells” value in the data set on hepatic stellate cells (CL15A6 lipid nanoparticles iv, helper phospholipid DOPE compared to DOPC and DSPC) was “significantly improved”. Also, the “mRNA delivery efficiency to hepatic stellate cells” value in the data set with hepatic stellate cells (setting [4]) is reported as “linearly improved”. Also, the “transfection efficiency of hepatic stellate cells” value in the data set with hepatic stellate cells (setting [4]) is “linearly improved”.
